Test results reported in ChEMBL document CHEMBL1133140, “Computer-aided design, synthesis and biological assay of p-methylsulfonamido phenylethylamine analogues” (2000).
Active and inactive are the calls of the source. The rule behind the calls is not given here.

Columns and labels:
[1] = Negative log of concentration (-logC)for delaying functional refractory period 10 ms in animal atrium; parameters: species or system Cardiac atrium
[2] = Tested for its effective concentration for delaying functional refractory period 10 ms in animal atrium; parameters: species or system Cardiac atrium
[3] = Tested for its maximal percent change of force of constriction in uM; type: functional
[4] = The compound was tested for its maximal percent change of delaying functional refractory period in uM; no effect
[5] = Tested for its maximal percent change of heart rate in uM; type: functional
[6] = Tested for its maximal percent change of delaying functional refractory period in uM
[7] = The compound was tested for its maximal percent change of force of constriction in uM; no effect; type: functional

| Compound | EA [1] | Effective concentration [2] [µM] | Max delta FC [3] [%] | Max delta FRP [4] | Max delta HR [5] [%] | Max delta FRP [6] [%] | Max delta FC [7] |
| --- | --- | --- | --- | --- | --- | --- | --- |
| Cc1ccc(CN(CCc2ccc(N(S(C)(=O)=O)S(C)(=O)=O)cc2)Cc2ccccc2)cc1 | 6.21 | 0.62 |  |  |  |  |  |
| CS(=O)(=O)Nc1ccc(CCN(CCOc2ccccc2)Cc2ccccc2)cc1 |  |  | 25 | inactive | -31.8 |  |  |
| CS(=O)(=O)Nc1ccc(CCN(Cc2ccccc2)Cc2ccccc2)cc1 | 6.57 | 0.27 |  |  |  |  |  |
| CS(=O)(=O)Nc1ccc(CCN(CCOc2ccccc2)C(=O)c2ccccc2)cc1 |  |  | 33.3 |  | -20 | 5.33 |  |
| CC(=O)N(CCOc1ccc(NS(C)(=O)=O)cc1)CCc1ccc(NS(C)(=O)=O)cc1 | 7.67 | 0.021 |  |  |  |  |  |
| CN(CCOc1ccccc1)CCc1ccc(N(S(C)(=O)=O)S(C)(=O)=O)cc1 |  |  |  |  | -20.69 | 12 | inactive |
| C=CCN(CCOc1ccccc1)CCc1ccc(NS(C)(=O)=O)cc1 |  |  | 16.7 |  | -15.18 | 9.77 |  |
| CS(=O)(=O)Nc1ccc(CCN(Cc2ccccc2)Cc2ccc(Cl)cc2)cc1 | 5.98 | 1.05 |  |  |  |  |  |
| CN(CCOc1ccccc1)CCc1ccc(NS(C)(=O)=O)cc1 |  |  | 20.2 |  | -28.51 | 20.2 |  |
| CN(CCc1ccc(NS(C)(=O)=O)cc1)Cc1ccc(Cl)cc1 | 5.65 | 2.239 |  |  |  |  |  |
| CN(CCc1ccc(NS(C)(=O)=O)cc1)Cc1ccccc1 | 6.34 | 0.372 |  |  |  |  |  |
| C=CCN(CCOc1ccccc1)CCc1ccc(N(S(C)(=O)=O)S(C)(=O)=O)cc1 |  |  | 16.7 | inactive | -8.33 |  |  |
| CS(=O)(=O)N(c1ccc(CCN(Cc2ccccc2)Cc2ccc3c(c2)OCO3)cc1)S(C)(=O)=O | 6.41 | 0.38 |  |  |  |  |  |
| CC(=O)N(CCOc1ccccc1)CCc1ccc(N(S(C)(=O)=O)S(C)(=O)=O)cc1 |  |  |  | inactive | -20.51 |  | inactive |
| CC(=O)N(CCOc1ccccc1)CCc1ccc(NS(C)(=O)=O)cc1 |  |  | -37.9 |  | -46.17 | 58.4 |  |
| COc1ccc(CN(C)CCc2ccc(N(S(C)(=O)=O)S(C)(=O)=O)cc2)cc1 | 5.93 | 1.17 |  |  |  |  |  |
| CS(=O)(=O)Nc1ccc(CCN(CCOc2ccc(NS(C)(=O)=O)cc2)Cc2ccc(Cl)cc2)cc1 | 7.44 | 0.037 |  |  |  |  |  |
| COc1ccccc1CN(CCc1ccc(NS(C)(=O)=O)cc1)Cc1ccccc1 | 6.85 | 0.141 |  |  |  |  |  |
| Cc1ccc(CN(C)CCc2ccc(N(S(C)(=O)=O)S(C)(=O)=O)cc2)cc1 | 6.02 | 0.953 |  |  |  |  |  |
| CS(=O)(=O)N(c1ccc(CCN(CCOc2ccccc2)Cc2ccccc2)cc1)S(C)(=O)=O |  |  | 25 | inactive | -17.86 |  |  |
| CN(CCOc1ccc(NS(C)(=O)=O)cc1)CCc1ccc(NS(C)(=O)=O)cc1 [DOFETILIDE] | 7.92 | 0.012 | 17.1 |  | -30.03 | 24 |  |
| COc1ccc(CN(CCc2ccc(N(S(C)(=O)=O)S(C)(=O)=O)cc2)Cc2ccccc2)cc1 | 6.1 | 0.79 |  |  |  |  |  |
| CS(=O)(=O)Nc1ccc(CCNCCOc2ccc(NS(C)(=O)=O)cc2)cc1 [N-DESMETHYLDOFETILIDE] | 7.63 | 0.023 |  |  |  |  |  |
| CN(CCc1ccc(NS(C)(=O)=O)cc1)Cc1ccc2c(c1)OCO2 | 6.15 | 0.89 |  |  |  |  |  |
| CS(=O)(=O)Nc1ccc(CCN(CCOc2ccc(NS(C)(=O)=O)cc2)Cc2ccccc2)cc1 | 7.8 | 0.016 |  |  |  |  |  |
| CN(CCc1ccc(NS(C)(=O)=O)cc1)C1CCCCC1 | 5.32 | 4.789 |  |  |  |  |  |
